Experimental findings from patent US8580805B2, “Pyrimidine carboxamide derivatives” (priority 2010, dated 2013) are described below.

Assay [1] relates to adjuvant-induced arthritis in male Lewis rats. Put plainly: adjuvant-induced arthritis test in rats. It is filed as in vivo, rat. The note with it: change day 28 minus day 21; 30 mg/kg by intubation each day for seven days; vehicle result in parenthesis. The protocol: As mentioned earlier, the compounds of formula (1) and pharmaceutically acceptable salts of compounds of formula (1) are useful in the treatment or prevention of inflammations and diseases where inflammation is the innate cause. For example, they can be used as anti-inflammatory agents in the treatment of inflammatory joint diseases, such as arthritis. To substantiate this assertion, representative compounds of formula (1) were tested for their inflammation-inhibiting properties in the adjuvant-induced arthritis test in rats as described in Int J Immunopharma, […], 12, 709-712.
A quantity of 0.1 ml of a 0.5% (weight/volume) suspension of heat-killed and dried mycobacterium butyricum in heavy mineral oil, containing 0.2% digitonin, is injected into the base of the tail of male Lewis rats (120-140 g). The animals are housed individually and receive feed and water ad libitum. The thus-induced arthritis is allowed to develop without treatment during 21 days. On day 21 the body weight of each animal is determined. At the same time, the volumes of the two hind paws of each animal are measured by immersing the paws in an aqueous plethysmograph up to the height of the lateral malleolus. Thereupon, the animals are divided into groups, each group comprising six animals of approximately the same average volumes of the hind paws. One group is administered suspending vehicle. The other groups are administered the micronized test compound suspended in an aqueous suspending vehicle [0.9% NaCl (w/v) containing 0.5% carboxymethyl cellulose (w/v), 0.86% benzyl alcohol (v/v) and 0.39% Tween 80 (v/v)]. The test compound in aqueous suspending vehicle (or vehicle alone) is administered to the animals by intubation each day over a period of seven days. The effect of the test compounds is monitored daily by measurement of the hind paw volumes and body weights. At the end of the treatment period (day 28), body weights and volumes of the hind paws are again determined. The changes over the treatment period are calculated. The change in paw volume or body weight equals the paw volume or body weight on day 28 minus paw volume or body weight on day 21.
The results determined for representative compounds of formula (1) in the test described hereinbefore are set forth in the following Table I. Therein, the results for vehicle is in parenthesis following the results for each tested compound at a dose level of 30 mg/kg in each test.

Assay [2] relates to purified potato 5-lipoxygenase. Put plainly: LOX Inhibitor Screening Assay Kit (Cayman), colorimetric. It counts as biochemical. The note with it: arachidonic acid as substrate. As for the experimental part: A representative compounds of formula (1a), was also tested for the effects on the activity of purified COX1, COX2, and LOX5 enzymes. In sharp contrast to the potent activity in the adjuvant-induced arthritis test in rats, the activity against the isolated arachidonic acid metabolizing enzymes was low. LOX5 activity was also measured colorimetrically by the hydroperoxides generated from the incubation of purified potato 5-lipoxygenase (Cayman Chemical Item Number 60401) in the LOX Inhibitor Screening Assay Kit (Cayman Chemical Item Number 760700) using arachidonic acid as substrate and following the protocol provided by Cayman Chemical. The test substance A inhibited the enzyme at 300, 100, 30 μM at 89, 69, and 46%, respectively.

In a further assay the target is T1, ovine COX-1 (Ovis aries, UniProt P05979).
T1 construct: purchased Cayman Chemicals
T1 sequence (P05979 25-600): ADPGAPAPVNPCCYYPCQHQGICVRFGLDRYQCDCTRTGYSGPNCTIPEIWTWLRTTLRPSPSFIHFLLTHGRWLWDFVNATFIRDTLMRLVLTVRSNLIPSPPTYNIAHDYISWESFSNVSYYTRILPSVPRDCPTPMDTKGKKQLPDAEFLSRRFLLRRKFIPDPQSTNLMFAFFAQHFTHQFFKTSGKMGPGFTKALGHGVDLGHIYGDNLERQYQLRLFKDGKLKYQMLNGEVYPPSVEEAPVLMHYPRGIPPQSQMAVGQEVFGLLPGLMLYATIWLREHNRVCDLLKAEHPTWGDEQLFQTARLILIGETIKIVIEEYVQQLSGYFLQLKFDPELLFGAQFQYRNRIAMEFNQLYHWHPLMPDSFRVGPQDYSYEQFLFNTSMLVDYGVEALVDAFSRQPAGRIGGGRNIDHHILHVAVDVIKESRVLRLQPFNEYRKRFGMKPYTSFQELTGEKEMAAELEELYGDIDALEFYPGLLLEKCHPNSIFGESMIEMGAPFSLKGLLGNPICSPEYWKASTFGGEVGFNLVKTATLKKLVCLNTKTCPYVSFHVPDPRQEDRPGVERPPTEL
Put plainly: COX Activity Assay (Cayman), colorimetric, COX-1. It counts as biochemical. The note with it: at a level of 300 μM. The protocol:
(§1) A representative compounds of formula (1a), was also tested for the effects on the activity of purified COX1, COX2, and LOX5 enzymes. In sharp contrast to the potent activity in the adjuvant-induced arthritis test in rats, the activity against the isolated arachidonic acid metabolizing enzymes was low.
(§2) COX activity was measured using an assay kit obtained from Cayman Chemicals in accord with the instruction manual of the manufacturer “COX Activity Assay, Catalog No. 760151, Colorimetric Assay for the Determination of COX Activity.” The enzyme activity was determined by the peroxidase activity of cyclooxygenases on arachidonic acid and monitored colorimetrically at 590 nm by the appearance of oxidized N,N,N′,N′-tetramethyl-p-phenylenediamine. Both ovine COX-1 and human recombinant COX-2 were obtained from Cayman Chemicals.

The target in the next assay is T2, human recombinant COX-2 (Homo sapiens, UniProt P35354).
T2 construct: purchased Cayman Chemicals
T2 sequence (P35354 18-604): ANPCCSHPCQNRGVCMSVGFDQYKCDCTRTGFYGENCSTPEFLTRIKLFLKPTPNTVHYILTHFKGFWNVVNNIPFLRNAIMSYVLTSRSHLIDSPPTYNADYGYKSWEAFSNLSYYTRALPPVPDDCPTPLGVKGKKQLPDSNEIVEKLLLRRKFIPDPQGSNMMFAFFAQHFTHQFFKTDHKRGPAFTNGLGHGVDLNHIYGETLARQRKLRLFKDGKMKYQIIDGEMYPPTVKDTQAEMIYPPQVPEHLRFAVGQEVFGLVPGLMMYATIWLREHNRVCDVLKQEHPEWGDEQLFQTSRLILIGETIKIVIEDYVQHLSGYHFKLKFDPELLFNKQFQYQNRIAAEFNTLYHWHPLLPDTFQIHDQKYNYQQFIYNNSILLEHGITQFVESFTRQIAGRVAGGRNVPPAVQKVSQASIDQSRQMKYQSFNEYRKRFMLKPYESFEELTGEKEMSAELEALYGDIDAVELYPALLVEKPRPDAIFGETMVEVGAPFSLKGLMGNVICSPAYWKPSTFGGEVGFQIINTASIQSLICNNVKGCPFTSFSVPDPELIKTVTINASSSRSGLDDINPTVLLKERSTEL
Put plainly: COX Activity Assay (Cayman), colorimetric, COX-2. It counts as biochemical. The note with it: read-out: IC50 for COX2. The protocol: as §1, §2

As for `CNC(=O)c1cnc(OC)nc1-c1cc(C(C)(C)C)c(O)c(C(C)(C)C)c1` [C, 4-(3,5-di-tert-butyl-4-hydroxy-phenyl)-2-methoxy-pyrimidine-5-carboxylic acid methylamide], in assay [1], the “Body weight change (g)” value is given as 28 ± 2 (13) g, the “Left paw volume (mL)” value is recorded as −0.65 ± 0.02 (0.09) mL and the “Right paw volume (mL)” value is on record as −0.61 ± 0.01 (0.08) mL.

For orientation: IC50 means the midpoint of a concentration-inhibition curve. Take `CNC(=O)c1cnc(C)nc1-c1cc(C(C)(C)C)c(O)c(C(C)(C)C)c1` [Compound A, 4-(3,5-di-tert-butyl-4-hydroxy-phenyl)-2-methyl-pyrimidine-5-carboxylic acid methylamide]: the LOX5 inhibition is recorded as 46% in assay [2] (30 μM), 69% in assay [2] (100 μM) and 89% in assay [2] (300 μM). Further, at ovine COX-1, the “effect on COX1” value is given as “no effect”. Besides, the “Body weight change (g)” value in assay [1] is 25 ± 3 (13) g. Moreover, the “Left paw volume (mL)” value in assay [1] is given as −0.88 ± 0.12 (0.09) mL. Further, the “Right paw volume (mL)” value in assay [1] is listed as −0.99 ± 0.15 (0.08) mL. On human recombinant COX-2, the IC50 amounted to 60 µM.
